Data as given in patent publication US5574070A, “Substituted guanidines having high binding to the sigma receptor and the use thereof” (priority 1993, dated 1996).
Counter-ions that a name gives are not always drawn. Like-named read-outs stand apart in the source and are kept apart here.

Columns and labels:
sigma receptor = experiment: [3H]DTG displacement radioligand binding assay, guinea pig brain membranes
anxiety behavior of mice = experiment: black:white test box (light/dark exploration) of mice; details: for anxiolytic activity: 1 mg/kg
[3H]MK-801 = [3H]MK-801 displacement binding; details: read-out: IC50 vs [3H]MK-801; Table II; ± s.e.m. (n)
[1] = list of especially preferred compounds, read-out: IC50 (high binding to the sigma receptor)
[2] = read-out: IC50 vs [3H]DTG, Table II, ± s.e.m. (n)
[3] = Example 25, guinea pig brain membrane homogenates, read-out: IC50 binding values
[4] = read-out: IC50 vs [3H]DTG, Table I, guinea pig brain membranes

Molecule | IC50 (sigma receptor; [1]) [nM] | numbers of line crossings and/or rears in the light compartment (vs dark) (anxiety behavior of mice; s.c.) | sedation: total numbers of rears and line crossings (anxiety behavior of mice; s.c.) | in vitro [3H]DTG displacement activity (sigma receptor) | IC50 (sigma receptor; [3]) [nM] | IC50 (sigma receptor; [4]) [nM] | further results
N=C(Nc1ccccc1I)N[C@@H]1C[C@@H]2CC[C@H]1C2 (relative stereo) [N-((±)-endo-2-norbornyl)-N'-(2-iodophenyl)guanidine] | 5 | significant dose-dependent increase in the number of rears in the light compartment | did not decrease significantly, showing that the drug was not sedative |  |  |  | latency to entering the dark compartment (anxiety behavior of mice; oral): increase in the latency to entering the dark compartment; numbers of line crossings and/or rears in the light compartment (vs dark) (anxiety behavior of mice; oral): increase in the number of rears in the light compartment; proportion of time in light area / percentage of time in black compartment (anxiety behavior of mice; oral): decrease in the percentage time spent in the black compartment; sedation: total numbers of rears and line crossings (anxiety behavior of mice; oral): did not decrease significantly, showing that the drug was not sedative; latency to entering the dark compartment (anxiety behavior of mice; s.c.): dose-dependent increase in the latency to entering the dark compartment
N=C(Nc1ccc(F)cc1F)NC12CC3CC(CC(C3)C1)C2 [N-(Adamantan-1-yl)-N'-(2,4-difluorophenyl)guanidine] | 8.92 |  |  |  |  |  | IC50 (sigma receptor; [2]): 8.92 nM; IC50 ([3H]MK-801): > 10000 nM
N=C(Nc1ccccc1C(F)(F)F)NC12CC3CC(CC(C3)C1)C2 [N-(Adamantan-1-yl)-N'-(2-trifluoromethylphenyl)guanidine] | 7.44 |  |  |  |  |  | IC50 (sigma receptor; [2]): 7.44 nM; IC50 ([3H]MK-801): 23100 nM
Cc1ccccc1NC(=N)N[C@H]1C[C@@H]2CC[C@H]1C2 (relative stereo) [N-(exo-2-norbornyl)-N'-(2-methylphenyl)guanidine] | 7 | increase in the number of rears in the light compartment | did not decrease significantly, showing that the drug was not sedative |  |  |  | latency to entering the dark compartment (anxiety behavior of mice; oral): increase in the latency to entering the dark compartment; numbers of line crossings and/or rears in the light compartment (vs dark) (anxiety behavior of mice; oral): increase in the number of rears in the light compartment; proportion of time in light area / percentage of time in black compartment (anxiety behavior of mice; oral): decrease in the percentage time spent in the black compartment; sedation: total numbers of rears and line crossings (anxiety behavior of mice; oral): did not decrease significantly, showing that the drug was not sedative; latency to entering the dark compartment (anxiety behavior of mice; s.c.): increase in the latency to entering the dark compartment when administered at 0.1 mg/kg
N=C(NC1CCCCC1)NC12CC3CC(CC(C3)C1)C2 [AdChG, N, Adamantan-1-yl-N'-cyclohexylguanidine HCl] | 12.5 | increase in the number of rears in the light compartment | did not change significantly, showing that the drug was not sedative | found to possess the aforesaid in vitro [^3 H]DTG displacement activity | 12.5 ± 2.2 | 13 ± 2 | latency to entering the dark compartment (anxiety behavior of mice; s.c.): dose-dependent increase in the latency to entering the dark compartment
N=C(Nc1ccccc1I)Nc1ccccc1C=Cc1ccccc1 [N-(2-styrylphenyl)-N'-(2-iodophenyl)guanidine] |  |  |  |  |  |  | latency to entering the dark compartment (anxiety behavior of mice; i.p.): decreased the latency to entering the dark compartment; numbers of line crossings and/or rears in the light compartment (anxiety behavior of mice; i.p.): did not affect the numbers of line crossings or rears in the light compartment; proportion of time in light area / percentage of time in black compartment (anxiety behavior of mice; i.p.): No significant change in the percentage time in the black compartment
CC12CC3CC(C)(C1)CC(/N=C(\N)Nc1ccccc1/C=C/c1ccccc1)(C3)C2 [Example F-114-B, N-(3,5-dimethyladamantan-1-yl)-N'-[(E)-2-phenylethenyl]phenylguanidine] |  |  | did not decrease significantly showing that the drug was not sedative at this level |  |  |  | 
dynorphin A [reference compound] |  |  |  |  |  |  | displacement of [3H]DTG (sigma receptor; 10 uM): no significant displacement
Cc1ccccc1NC(=N)N[C@H]1C[C@@H]2CC[C@@]1(C)C2(C)C (relative stereo) [N-(exo-2-isobornyl)-N'-(o-tolyl)guanidine] | 25 |  |  | found to possess the aforesaid in vitro [^3 H]DTG displacement activity | 25 |  | 
Cc1ccccc1NC(=N)NC1CCCCC1 [N-Cyclohexyl-N'-(2-methylphenyl)guanidine] | 13 | increased in a dose-dependent manner at the expense of those in the dark compartment | did not decrease significantly, showing that the drug was not sedative | found to possess the aforesaid in vitro [^3 H]DTG displacement activity | 13 ± 1 | 17 ± 5 | latency to entering the dark compartment (anxiety behavior of mice; oral): slight increase in the latency to entering the dark compartment; numbers of line crossings and/or rears in the light compartment (vs dark) (anxiety behavior of mice; oral): increase in the total numbers of rears in the light compartment; proportion of time in light area / percentage of time in black compartment (anxiety behavior of mice; oral): significant decrease in the percentage of time in the black compartment; sedation: total numbers of rears and line crossings (anxiety behavior of mice; oral): did not change significantly, showing that the compound was not sedative; latency to entering the dark compartment (anxiety behavior of mice; s.c.): increase in the latency to entering the dark compartment; proportion of time spent in the lighted area (anxiety behavior of mice; s.c.): increases significantly the proportion of time the mice spent in the larger, lighted area
CCc1cccc(N2CCN(c3cccc(CC)c3)C2=N)c1 [N,N'-Bis (3-ethylphenyl)-2-imino-imidazolidine] | 70 |  |  |  |  |  | 
Cc1ccccc1NC(=N)Nc1ccc([N+](=O)[O-])cc1C [N-(2-Methyl-4-nitrophenyl)-N'-(2-methyl-phenyl)guanidine] | 37 |  |  | found to possess the aforesaid in vitro [^3 H]DTG displacement activity | 37 | 37 ± 5 | 
Cl.N=C(Nc1ccccc1I)NC12CC3CC(CC(C3)C1)C2 [AdIpG, N-(Adamantan-1-yl)-N'-(2-iodophenyl)guanidine HCl] | 6.2 | increased at the expense of those in the dark compartment | did not decrease significantly showing that the drug was not sedative at this level | found to possess the aforesaid in vitro [^3 H]DTG displacement activity | 6.2 ± 0.7 | 5 ± 1 | latency to entering the dark compartment (anxiety behavior of mice; oral): increase in the latency to entering the dark compartment; numbers of line crossings and/or rears in the light compartment (vs dark) (anxiety behavior of mice; oral): increase in the numbers of line crossings and rears in the light compartment; sedation: total numbers of rears and line crossings (anxiety behavior of mice; oral): did not decrease significantly; anxiolytic activity (anxiety behavior of mice; oral): have anxiolytic activity when orally administered; latency to entering the dark compartment (anxiety behavior of mice; s.c.): increased in a dose-dependent manner; proportion of time spent in the lighted area (anxiety behavior of mice; s.c.): increased, in a dose-dependent manner, the proportion of time the mice spent in the larger, lighted area
CC12CC3CC(C)(C1)CC(NC(=N)Nc1ccccc1I)(C3)C2 [N-(3,5-dimethyl-1-adamantanyl)-N'-(o-iodophenyl)guanidine] | 16 |  |  | found to possess the aforesaid in vitro [^3 H]DTG displacement activity | 16 |  | 
Cc1cc(Br)ccc1NC(=N)Nc1ccc(Br)cc1C [Example 4-Br--DTG, N,N'-Di-(4-bromo-2-methylphenyl)guanidine] | 37 |  |  | found to possess the aforesaid in vitro [^3 H]DTG displacement activity | 37 | 37 ± 3 | 
CCCCNC(=N)NCCCC [N,N'-di-n-butyl-guanidine] |  |  |  | found to possess the aforesaid in vitro [^3 H]DTG displacement activity |  | 750 ± 33 | 
Cc1ccccc1NC(=N)NC1C2CC3CC(C2)CC1C3 (stereo not drawn) [N-(adamant-2-yl)-N'-(2-methylphenyl)guanidine] | 7 |  |  |  |  |  | 
N=C(NC12CC3CC(CC(C3)C1)C2)NC12CC3CC(CC(C3)C1)C2 [DAG, N,N'-di-(adamantan-1-yl)guanidine] | 16.5 | increased at the expense of those in the dark compartment | did not decrease significantly showing that the drug was not sedative at this level | found to possess the aforesaid in vitro [^3 H]DTG displacement activity | 11.8 ± 3.4 | 17 ± 3 | latency to entering the dark compartment (anxiety behavior of mice; oral): increase in the latency to entering the dark compartment; numbers of line crossings and/or rears in the light compartment (vs dark) (anxiety behavior of mice; oral): increase in the numbers of line crossings and rears in the light compartment; sedation: total numbers of rears and line crossings (anxiety behavior of mice; oral): did not decrease significantly; anxiolytic activity (anxiety behavior of mice; oral): have anxiolytic activity when orally administered; proportion of time spent in the lighted area (anxiety behavior of mice; s.c.): tended to increase the proportion of time the mice spent in the larger, lighted area
